Read-outs that look alike come from different tables or passages of the source. Blank lines part the entries; values can stand above or below the molecule they belong to.
Key:
[1] = molecular target: T1, CIB1 and αIIb interaction (CIB1-GST : F-αIIb peptide) (Homo sapiens, UniProt Q99828); experiment: FP assay, 1536-well qHTS format (primary and confirmatory screen); type: binding; settings: for CONFIRMATORY SCREEN Curve Class / Curve Class (confirmatory screen): qHTS curve class
T1 construct: made in house; host or cells: BL-21 plus RIL cells (E. coli)
T1 sequence (Q99828 1-191): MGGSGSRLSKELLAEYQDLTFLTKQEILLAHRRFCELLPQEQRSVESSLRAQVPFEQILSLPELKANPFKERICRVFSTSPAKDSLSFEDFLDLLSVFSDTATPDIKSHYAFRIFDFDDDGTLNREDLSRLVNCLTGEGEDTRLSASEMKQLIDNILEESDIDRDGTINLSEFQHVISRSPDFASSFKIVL

[2] = molecular target: T2, GST-CIB1 : F-scrambled peptide (Homo sapiens, UniProt Q99828); experiment: FP scrambled-peptide counter screen, 1536-well format; type: binding; settings: for COUNTERSCREEN Curve Class / Curve Class (counterscreen): qHTS curve class
T2 construct: made in house; host or cells: BL-21 plus RIL cells (E. coli)
T2 sequence (Q99828 1-191): T1 sequence (Q99828 1-191)

[3] = qHTS primary screen hits, Table S2, read-out: IC50
[4] = Table S3, counterscreen, negative = inhibition
[5] = Table S3, counterscreen, read-out: IC50 [μM] (counterscreen)
[6] = qHTS primary screen hits, Table S2, negative = inhibition
[7] = qHTS primary screen hits, Table S2, negative sign = inhibitory curve, several classes where COUNT > 1
[8] = confirmatory screen, negative sign = inhibitory curve
[9] = confirmatory screen, read-out: IC50 [μM] (confirmatory screen)
[10] = qHTS primary screen hits, Table S2, negative sign = inhibitory curve
[11] = counterscreen, negative sign = inhibitory curve
[12] = Table S3, confirmatory screen, a negative sign marks inhibitory curves
[13] = Table S3, confirmatory screen, negative = inhibition
[14] = Table S3, counterscreen, a negative sign marks inhibitory curves
[15] = confirmatory screen, YES/NO call
[16] = confirmatory screen, negative = inhibition
[17] = confirmatory screen, read-out: CONFIRMATORY SCREEN IC50
[18] = scrambled-peptide counterscreen
[19] = scrambled-peptide counterscreen, YES/NO call
[20] = qHTS FP screen hits, Table S2, negative = inhibition
[21] = qHTS FP screen hits, Table S2, one class per curve where COUNT > 1, negative sign = inhibitory curve
[22] = qHTS FP screen hits, Table S2, read-out: IC50

Compound: CC(C)Oc1cccc(NC(=O)c2ccccc2C(F)(F)F)c1 [NCGC00160537-04]
- IC50 [1, 3]: 100 µM
- Confirm? (counterscreen) ([2]; Table S3, counterscreen, YES/NO call): YES
- Efficacy (%) (counterscreen) [2, 4]: -39%
- IC50 [2, 5]: 39.8 µM

- CONFIRMATORY SCREEN Efficacy (%) ([1]; confirmatory screen): 0%
- CONFIRMATORY SCREEN Curve Class ([1]; confirmatory screen): 4
- Efficacy (%) [1, 6]: -25%
- Curve Class [1, 7]: -1.4
- IC50 [1, 3]: 31.6 µM
- COUNTERSCREEN Efficacy (%) ([2]; counterscreen): -13%
- COUNTERSCREEN Curve Class ([2]; counterscreen): 4
Compound: O=[N+]([O-])c1ccc(O)c2ncccc12 [NCGC00160664-03]

- Efficacy (%) (confirmatory screen) ([1]; confirmatory screen): -63%
- Confirm? (confirmatory screen) ([1]; confirmatory screen, YES/NO): YES
- Curve Class (confirmatory screen) [1, 8]: -1.4
- IC50 [1, 9]: 8.9 µM
- Efficacy (%) [1, 6]: -24%
- Curve Class [1, 10]: -1.4
- IC50 [1, 3]: 3 µM
- Efficacy (%) (counterscreen) ([2]; counterscreen): -30%
- Curve Class (counterscreen) [2, 11]: -1.4
- IC50 ([2]; counterscreen, read-out: IC50 [μM] (counterscreen)): 17.8 µM
Compound: COc1cccc2nc(-c3cccs3)nc(NN3C(=O)C=C(C)C3=O)c12 [NCGC00161703-02]

Compound: CO[C@H](C(=O)[C@@H](O)[C@@H](C)O)[C@@H]1Cc2cc3cc(C[C@H]4C[C@H](O[C@H]5C[C@@H](O)[C@H](O)[C@@H](C)O5)[C@@H](O)[C@@H](C)O4)c(C)c(O)c3c(O)c2C(=O)[C@H]1O[C@@H]1C[C@H](O[C@@H]2C[C@H](O[C@@H]3C[C@](O)(CO)[C@@H](O)[C@H](C)O3)[C@@H](O)[C@H](C)O2)[C@@H](O)[C@H](C)O1 [NCGC00162423-04]
- Confirm? (confirmatory screen) ([1]; Table S3, confirmatory screen, YES/NO call): YES
- Curve Class (confirmatory screen) [1, 12]: -2.1
- Efficacy (%) (confirmatory screen) [1, 13]: -183%
- IC50 ([1]; Table S3, confirmatory screen, read-out: IC50 [μM] (confirmatory screen)): 31.6 µM
- Efficacy (%) [1, 6]: -51%
- Curve Class [1, 7]: -2.2
- IC50 [1, 3]: 24.1 µM
- Curve Class (counterscreen) [2, 14]: -1.1
- Efficacy (%) (counterscreen) [2, 4]: -181%
- IC50 [2, 5]: 15.8 µM

Compound: Cc1ccc(C(=O)Nc2ccc(S(=O)(=O)O)c3cc(S(=O)(=O)O)cc(S(=O)(=O)O)c23)cc1NC(=O)c1cccc(NC(=O)Nc2cccc(C(=O)Nc3cc(C(=O)Nc4ccc(S(=O)(=O)O)c5cc(S(=O)(=O)O)cc(S(=O)(=O)O)c45)ccc3C)c2)c1 [NCGC00163318-03]
- CONFIRMATORY SCREEN Confirm? [1, 15]: YES
- CONFIRMATORY SCREEN Curve Class [1, 8]: -1.4
- CONFIRMATORY SCREEN Efficacy (%) [1, 16]: -15%
- IC50 [1, 17]: 7.9 µM
- Efficacy (%) [1, 6]: -22%
- Curve Class [1, 10]: -1.4
- IC50 [1, 3]: 0.7 µM
- COUNTERSCREEN Efficacy (%) [2, 18]: 16%
- COUNTERSCREEN Confirm? [2, 19]: YES
- COUNTERSCREEN Curve Class [2, 18]: 4

- Curve Class (confirmatory screen) [1, 12]: 4
- Efficacy (%) (confirmatory screen) [1, 13]: -31%
- Efficacy (%) [1, 6]: -38%
- Curve Class [1, 7]: -1.2
- IC50 [1, 3]: 25.1 µM
- Curve Class (counterscreen) [2, 14]: 3
- Efficacy (%) (counterscreen) [2, 4]: 95%
- IC50 [2, 5]: 39.8 µM
Compound: CO[C@@]12[C@H](COC(N)=O)C3=C(C(=O)C(C)=C(N)C3=O)N1C[C@@H]1N[C@@H]12 [NCGC00163468-05]

Compound: COC[C@H]1OC(=O)c2coc3c2[C@@]1(C)C1=C(C3=O)[C@@H]2CCC(=O)[C@@]2(C)C[C@H]1OC(C)=O [NCGC00163485-03]
- IC50 [1, 9]: 28.2 µM
- Efficacy (%) (counterscreen) ([2]; counterscreen): -20%
- Confirm? (counterscreen) ([2]; counterscreen, YES/NO): YES
- Curve Class (counterscreen) [2, 11]: 4

Compound: O=C1c2cccc(O)c2C(=O)c2c(O)cc(CO)cc21 [NCGC00163510-03]
- Curve Class (confirmatory screen) [1, 12]: 4
- Efficacy (%) (confirmatory screen) [1, 13]: -18%
- Efficacy (%) [1, 20]: -33%
- Curve Class [1, 21]: -1.2
- IC50 [1, 22]: 9.6 µM
- Curve Class (counterscreen) [2, 14]: 4
- Efficacy (%) (counterscreen) [2, 4]: -8%

Compound: C[C@H]1COC2=C1C(=O)C(=O)c1c2ccc2c1CCCC2(C)C [NCGC00163650-02]
- CONFIRMATORY SCREEN Efficacy (%) ([1]; confirmatory screen): 0%
- CONFIRMATORY SCREEN Curve Class ([1]; confirmatory screen): 4
- Efficacy (%) [1, 6]: -26%
- Curve Class [1, 7]: -2.4
- IC50 [1, 3]: 30.4 µM
- COUNTERSCREEN Efficacy (%) ([2]; counterscreen): -18%
- COUNTERSCREEN Curve Class ([2]; counterscreen): 4

Compound: O=c1oc2ccccc2c(O)c1C(CC(O)c1ccc(-c2ccc(Br)cc2)cc1)c1ccccc1 (stereo not shown) [NCGC00163939-02]
- CONFIRMATORY SCREEN Confirm? [1, 15]: YES
- CONFIRMATORY SCREEN Curve Class [1, 8]: -1.2
- CONFIRMATORY SCREEN Efficacy (%) [1, 16]: -37%
- IC50 [1, 17]: 12.6 µM
- Efficacy (%) [1, 6]: -58%
- Curve Class [1, 7]: -2.2
- IC50 [1, 3]: 79.4 µM
- COUNTERSCREEN Efficacy (%) [2, 18]: 109%
- COUNTERSCREEN Confirm? [2, 19]: YES
- COUNTERSCREEN Curve Class [2, 18]: 3
- IC50 ([2]; scrambled-peptide counterscreen, read-out: COUNTERSCREEN IC50): 89.1 µM

- CONFIRMATORY SCREEN Efficacy (%) ([1]; confirmatory screen): 14%
- CONFIRMATORY SCREEN Curve Class ([1]; confirmatory screen): 4
- Efficacy (%) [1, 20]: -61%
- Curve Class [1, 21]: -2.2
- IC50 [1, 22]: 79.4 µM
- COUNTERSCREEN Efficacy (%) ([2]; counterscreen): 0%
- COUNTERSCREEN Curve Class ([2]; counterscreen): 4
Compound: O=C(O)Cc1ccc(CCNS(=O)(=O)c2ccc(Cl)cc2)cc1 [NCGC00165787-03]

Source: PMC11249646, “Small-Molecule Disruptors of the Interaction between Calcium- and Integrin-Binding Protein 1 and Integrin αIIbβ3 as Novel Antiplatelet Agents” (ACS Pharmacology & Translational Science, 2024)
